Source: patent US20040072842A1 (published 2004)

melting point [°C] | Compound
166 to 168 | O=C(COCc1ccccc1)N1CCN(c2ccc(N3C[C@H](CNC(=S)C(F)F)OC3=O)cc2)CC1
151 to 152 | O=C(CO)N1CCC(c2ccc(N3C[C@H](CNC(=S)C(F)F)OC3=O)cc2F)CC1
